Data from ChEMBL document CHEMBL6134780, “Halogenated retinoid derivatives as dual RARα and RXRα modulators for treating acute promyelocytic leukemia cells” (Eur J Med Chem, 2024).
Calls of active or inactive are those of the source. The calls are words filed in the database; no cut-off is given here.

Tests used:
NB-4 [1] = assay: Cell cycle arrest in human NB4 cells assessed as accumulation of cells at sub-G1 phase at 1 uM incubated for 24 hrs by DAPI staining based flow cytometric analysis (reference value: 3 %); assay type: functional
[2] = Cell cycle arrest in human ATRA-resistant NB4-LR2 cells assessed as accumulation of cells at sub-G1 phase at 1 uM incubated for 24 hrs by DAPI staining based flow cytometric analysis (reference value: 12 %); assay type: functional
[3] = Induction of apoptosis in human ATRA-resistant NB4-LR2 cells assessed as viable cells at 1 uM incubated for 24 hrs by Annexin V-FITC/PI staining based flow cytometric analysis (reference value: 87.30 %); assay type: functional; details: read-out: Activity
NB-4 [4] = assay: Induction of apoptosis in human NB4 cells assessed as necrotic cells at 1 uM incubated for 24 hrs by Annexin V-FITC/PI staining based flow cytometric analysis (reference value: 0.07 %); assay type: functional
ATRA-resistant NB4-LR2 [5] = assay: Induction of apoptosis in human ATRA-resistant NB4-LR2 cells assessed as increase in cleaved-PARP expression at 2 uM incubated for 3 to 24 hrs by Western blot analysis; assay type: functional, cell-based; details: time 3-24 hrs
NB-4 [6] = assay: Cell cycle arrest in human NB4 cells assessed as accumulation of cells at G2/M phase at 2 uM incubated for 6 hrs by DAPI staining based flow cytometric analysis (reference value: 21 %); assay type: functional
[7] = Cell cycle arrest in human ATRA-resistant NB4-LR2 cells assessed as accumulation of cells at S phase at 1 uM incubated for 12 hrs by DAPI staining based flow cytometric analysis (reference value: 12 %); assay type: functional
NB-4 [8] = assay: Cell cycle arrest in human NB4 cells assessed as accumulation of cells at G0/G1 phase at 2 uM incubated for 12 hrs by DAPI staining based flow cytometric analysis (reference value: 56 %); assay type: functional
K562 = assay: Induction of apoptosis in human K562 cells assessed as necrotic cells at 1 uM incubated for 24 hrs by Annexin V-FITC/PI staining based flow cytometric analysis (reference value: 2.19 %); assay type: functional
Homo sapiens = species on record: Homo sapiens; assay: Binding affinity to N-terminal His-tagged human RARalpha LBD R276E mutant extracted from Escherichia coli BL21 (DE3) cells by ITC analysis
HEK293T = assay: Agonist activity at 3-Flag-tagged PML-RARalpha/HA-tagged RXRalpha (unknown origin) transfected in HEK293T cells co-transfected with pGL3-beta-RARE and Renilla-luc assessed as increase in transcriptional activity at 1 uM incubated for 12 hrs by luciferase reporter gene assay relative to ATRA; assay type: cell-based; details: Homo sapiens, filed as agonist
NB-4 [9] = assay: Cell cycle arrest in human NB4 cells transfected with pLVX-shRXRalpha plasmid assessed as accumulation of cells at G0/G1 phase at 2 uM incubated for 12 hrs by DAPI staining based flow cytometric analysis (reference value: 53 %); assay type: functional
[10] = Cell cycle arrest in human ATRA-resistant NB4-LR2 cells assessed as accumulation of cells at G2/M phase at 0.5 uM incubated for 24 hrs by DAPI staining based flow cytometric analysis (reference value: 25 %); assay type: functional
NB-4 [11] = assay: Induction of apoptosis in human NB4 cells assessed as PARP cleavage at >1 uM incubated for 24 hrs by Western blot analysis; assay type: functional, cell-based
NB-4 [12] = assay: Cell cycle arrest in human NB4 cells assessed as accumulation of cells at sub-G1 phase at 1 uM incubated for 12 hrs by DAPI staining based flow cytometric analysis (reference value: 2 %); assay type: functional
HeLa = assay: Induction of 3-flag-tagged PML-RARalpha (unknown origin) degradation transfected in human HeLa cells at 1 to 2 uM incubated for 24 hrs by Western blot analysis; assay type: cell-based; details: dose 1-2 µM
ATRA-resistant NB4-LR2 [13] = assay: Induction of mitosis in human ATRA-resistant NB4-LR2 cells assessed as upregulation of pS10-histone expression at 2 uM measured after 3 hrs by Western blot analysis; assay type: functional, cell-based
[14] = Cell cycle arrest in human ATRA-resistant NB4-LR2 cells assessed as accumulation of cells at sub-G1 phase at 1 uM incubated for 12 hrs by DAPI staining based flow cytometric analysis (reference value: 18 %); assay type: functional
NB-4 [15] = assay: Cell cycle arrest in human NB4 cells assessed as accumulation of cells at G0/G1 phase at 1 uM incubated for 12 hrs by DAPI staining based flow cytometric analysis (reference value: 51 %); assay type: functional
NB-4 [16] = assay: Induction of cell differentiation in human NB4 cells assessed as morphological changes at 0.5 uM incubated for 6 days by Wright-Giemsa staining based analysis; assay type: functional; details: time 6.0 day
NB-4 [17] = assay: Cell cycle arrest in human NB4 cells assessed as accumulation of cells at S phase at 2 uM incubated for 12 hrs by DAPI staining based flow cytometric analysis (reference value: 20 %); assay type: functional
NB-4 [18] = assay: Cell cycle arrest in human NB4 cells transfected with pLVX-shRXRalpha plasmid assessed as accumulation of cells at sub-G1 phase at 1 uM incubated for 12 hrs by DAPI staining based flow cytometric analysis (reference value: 10 %); assay type: functional
NB-4 [19] = assay: Cell cycle arrest in human NB4 cells assessed as increase in PLK1 expression at 2 uM incubated for 3 to 24 hrs by Western blot analysis; assay type: functional, cell-based; details: time 3-24 hrs
NB-4 [20] = assay: Induction of apoptosis in human NB4 cells assessed as late apoptotic cells at 1 uM incubated for 24 hrs by Annexin V-FITC/PI staining based flow cytometric analysis (reference value: 2.23 %); assay type: functional
NB-4 [21] = assay: Cell cycle arrest in human NB4 cells assessed as accumulation of cells at S phase at 2 uM incubated for 24 hrs by DAPI staining based flow cytometric analysis (reference value: 26 %); assay type: functional
Jurkat = assay: Induction of cell differentiation in human Jurkat cells at 0.5 uM incubated for 6 days by CD11b staining based flow cytometric analysis; assay type: functional; details: time 6.0 day
[22] = Cell cycle arrest in human ATRA-resistant NB4-LR2 cells assessed as accumulation of cells at G0/G1 phase at 2 uM incubated for 6 hrs by DAPI staining based flow cytometric analysis (reference value: 57 %); assay type: functional
NB-4 [23] = assay: Induction of DNA damage in human NB4 cells assessed as increase in gamma-H2AX expression at 2 uM by Western blot analysis; assay type: functional, cell-based
NB-4 [24] = assay: Cell cycle arrest in human NB4 cells transfected with pLVX-shRXRalpha plasmid assessed as accumulation of cells at S phase at 2 uM incubated for 12 hrs by DAPI staining based flow cytometric analysis (reference value: 19 %); assay type: functional
ATRA-resistant NB4-LR2 [25] = assay: Induction of cell differentiation in human ATRA-resistant NB4-LR2 cells at 0.5 uM incubated for 6 days by flow cytometric analysis; assay type: functional, cell-based; details: time 6.0 day
[26] = Cell cycle arrest in human ATRA-resistant NB4-LR2 cells assessed as accumulation of cells at G0/G1 phase at 2 uM incubated for 24 hrs by DAPI staining based flow cytometric analysis (reference value: 42 %); assay type: functional
NB-4 [27] = assay: Induction of apoptosis in human NB4 cells assessed as late apoptotic cells at 1 uM incubated for 24 hrs by Annexin V-FITC/PI staining based flow cytometric analysis (reference value: 3.20 %); assay type: functional
[28] = Cell cycle arrest in human ATRA-resistant NB4-LR2 cells assessed as accumulation of cells at G0/G1 phase at 2 uM incubated for 12 hrs by DAPI staining based flow cytometric analysis (reference value: 57 %); assay type: functional

| SMILES | viability at 1 µM [3] | Activity (NB-4 [4]) | Activity (ATRA-resistant NB4-LR2 [5]) | Activity (K562) | Activity (HEK293T) | Activity (NB-4 [11]) | Activity (HeLa) | Activity (ATRA-resistant NB4-LR2 [13]) | Activity (NB-4 [16]) | Activity (NB-4 [19]) | Activity (Jurkat) | Activity (NB-4 [23]) | Activity (ATRA-resistant NB4-LR2 [25]) | Activity (NB-4 [27]) | also measured |
| --- | --- | --- | --- | --- | --- | --- | --- | --- | --- | --- | --- | --- | --- | --- | --- |
| Cc1cc2c(cc1C(=O)/C(Br)=C/c1ccc(C(=O)O)cc1)C(C)(C)CCC2(C)C | 56.2% | 1.3% | Active | 2.27% | > 70% | Active | Active | Active | Active | Active | inactive | Active; Dna Damage Detected When Apoptosis Occurred | Minimal_effect | 15.77% | Activity (NB-4 [1]): 8%; Activity [2]: 20%; Activity (NB-4 [6]): 40%; Activity [7]: 16%; Activity (NB-4 [8]): 11%; Activity (Homo sapiens): inactive; Activity (NB-4 [9]): 40%; Activity [10]: 33%; Activity (NB-4 [12]): 5%; Activity [14]: 21%; Activity (NB-4 [15]): 20%; Activity (NB-4 [17]): 22%; Activity (NB-4 [18]): 11%; Activity (NB-4 [20]): 18.68%; Activity (NB-4 [21]): 19%; Activity [22]: 45%; Activity (NB-4 [24]): 22%; Activity [26]: 34%; Activity [28]: 36% |
| Cc1cc2c(cc1C(=O)/C(Br)=C\c1ccc(C(=O)O)cc1)C(C)(C)CCC2(C)C | 67.8% | 0.52% | Active | 2.02% | > 70% | Active | Active | Active | Active | Active | inactive | Active; Dna Damage Detected When Apoptosis Occurred | Minimal_effect | 10.49% | – |
